From patent US10588317B2, “Isoxazoline-substituted benzamides and analogues as insecticides” (priority 2015, dated 2020)

Key:
Assay type in all cases: in vivo
Diabrotica balteata = Diabrotica balteata (corn root worm), sprayed maize sprouts; details: 96 h, application rate 200 ppm, L2 larvae, 4 days after infestation, read-out: effect in at least one of the two categories (mortality or growth inhibition)
Description: Maize sprouts placed onto an agar layer in 24-well microtiter plates were treated with aqueous test solutions prepared from 10'000 ppm DMSO stock solutions by spraying. After drying, the plates were infested with L2 larvae (6 to 10 per well). The samples were assessed for mortality and growth inhibition in comparison to untreated samples 4 days after infestation.
(§1) The following compounds gave an effect of at least 80% in at least one of the two categories (mortality or growth inhibition) at an application rate of 200 ppm: […]

Euschistus heros = Euschistus heros (neotropical brown stink bug), sprayed soybean leaves; details: 120 h, application rate 200 ppm, N2 nymphs, 5 days after infestation, read-out: effect in at least one of the two categories (mortality or growth inhibition)
Description: Soybean leaves on agar in 24-well microtiter plates were sprayed with aqueous test solutions prepared from 10'000 ppm DMSO stock solutions. After drying the leaves were infested with N2 nymphs. The samples were assessed for mortality and growth inhibition in comparison to untreated samples 5 days after infestation.
as §1

Plutella xylostella = Plutella xylostella (diamond back moth), artificial diet; details: 120 h, application rate 200 ppm, L2 larvae, 5 days after infestation, read-out: effect in at least one of the two categories (mortality or growth inhibition)
Description: 24-well microtiter plates with artificial diet were treated with aqueous test solutions prepared from 10'000 ppm DMSO stock solutions by pipetting. After drying, the plates were infested with L2 larvae (10 to 15 per well). The samples were assessed for mortality and growth inhibition in comparison to untreated samples 5 days after infestation.
as §1

Spodoptera littoralis = Spodoptera littoralis (Egyptian cotton leaf worm), sprayed cotton leaf discs; details: foliar, 72 h, application rate 200 ppm, L1 larvae, 3 days after infestation, read-out: control (mortality, anti-feeding effect, growth inhibition)
Description: Cotton leaf discs were placed onto agar in 24-well microtiter plates and sprayed with aqueous test solutions prepared from 10'000 ppm DMSO stock solutions. After drying the leaf discs were infested with five L1 larvae. The samples were assessed for mortality, anti-feeding effect, and growth inhibition in comparison to untreated samples 3 days after infestation. Control of Spodoptera littoralis by a test sample is given when at least one of the categories mortality, anti-feedant effect, and growth inhibition is higher than the untreated sample.

Tetranychus urticae = Tetranychus urticae (two-spotted spider mite): feeding/contact activity; details: 192 h, application rate 200 ppm, mixed population (mobile stages), 8 days after infestation, read-out: mortality
Description: Bean leaf discs on agar in 24-well microtiter plates were sprayed with aqueous test solutions prepared from 10'000 ppm DMSO stock solutions. After drying the leaf discs were infested with a mite population of mixed ages. The samples were assessed for mortality on mixed population (mobile stages) 8 days after infestation.

Thrips tabaci = Thrips tabaci (onion thrips): feeding/contact activity; details: 144 h, application rate 200 ppm, Thrips population of mixed ages, 6 days after infestation, read-out: mortality
Description: Sunflower leaf discs were placed on agar in 24-well microtiter plates and sprayed with aqueous test solutions prepared from 10'000 ppm DMSO stock solutions. After drying the leaf discs were infested with a Thrips population of mixed ages. The samples were assessed for mortality 6 days after infestation.

COC(=O)CS(=O)(=O)N1C[C@@H](NC(=O)c2ccc(C3=NO[C@](c4cc(Cl)cc(Cl)c4)(C(F)(F)F)C3)cc2C)CO1 [Compound A176, methyl 2-[[(4R)-4-[[4-[(5R)-5-(3,5-dichlorophenyl)-5-(trifluoromethyl)-4H-1,2-oxazol-3-yl]-2-methylbenzoyl]amino]-1,2-oxazolidin-2-yl]sulfonyl]acetate]
≥ 80%: percent effect (mortality or growth inhibition) at 200 ppm (Diabrotica balteata) | percent effect (mortality or growth inhibition) at 200 ppm (Euschistus heros) | percent effect (mortality or growth inhibition) at 200 ppm (Plutella xylostella) | mortality at 200 ppm (Spodoptera littoralis) | mortality at 200 ppm (Tetranychus urticae) | mortality at 200 ppm (Thrips tabaci)

Cc1cc(C2=NO[C@](c3cc(Cl)c(F)c(Cl)c3)(C(F)(F)F)C2)ccc1C(=O)N[C@H]1CON(SC(Cl)(Cl)Cl)C1 [Compound A227, 4-[(5R)-5-(3,5-dichloro-4-fluorophenyl)-5-(trifluoromethyl)-4H-1,2-oxazol-3-yl]-2-methyl-N-[(4R)-2-(trichloromethylsulfanyl)-1,2-oxazolidin-4-yl]benzamide]
≥ 80%: percent effect (mortality or growth inhibition) at 200 ppm (Diabrotica balteata) | percent effect (mortality or growth inhibition) at 200 ppm (Euschistus heros) | percent effect (mortality or growth inhibition) at 200 ppm (Plutella xylostella) | mortality at 200 ppm (Spodoptera littoralis) | mortality at 200 ppm (Tetranychus urticae) | mortality at 200 ppm (Thrips tabaci)

Cc1cc(C2=NO[C@@](c3cc(Cl)c(F)c(Cl)c3)(C(F)(F)F)C2)ccc1C(=O)NC1CON(S(=O)(=O)NS(C)(=O)=O)C1 (stereo partly drawn) [Compound A102, 4-[(5S)-5-(3,5-dichloro-4-fluoro-phenyl)-5-(trifluoromethyl)-4H-isoxazol-3-yl]-2-methyl-N-[2-(methylsulfonylsulfamoyl)isoxazolidin-4-yl]benzamide]
≥ 80%: percent effect (mortality or growth inhibition) at 200 ppm (Diabrotica balteata) | percent effect (mortality or growth inhibition) at 200 ppm (Euschistus heros) | percent effect (mortality or growth inhibition) at 200 ppm (Plutella xylostella) | mortality at 200 ppm (Spodoptera littoralis) | mortality at 200 ppm (Tetranychus urticae) | mortality at 200 ppm (Thrips tabaci)

Cc1cc(C2=NO[C@](c3cc(Cl)c(F)c(Cl)c3)(C(F)(F)F)C2)ccc1C(=O)N[C@@H]1CON(SC(F)(F)F)C1 [Compound A224, 4-[(5R)-5-(3,5-dichloro-4-fluorophenyl)-5-(trifluoromethyl)-4H-1,2-oxazol-3-yl]-2-methyl-N-[(4S)-2-(trifluoromethylsulfanyl)-1,2-oxazolidin-4-yl]benzamide]
≥ 80%: percent effect (mortality or growth inhibition) at 200 ppm (Diabrotica balteata) | percent effect (mortality or growth inhibition) at 200 ppm (Euschistus heros) | percent effect (mortality or growth inhibition) at 200 ppm (Plutella xylostella) | mortality at 200 ppm (Spodoptera littoralis) | mortality at 200 ppm (Tetranychus urticae) | mortality at 200 ppm (Thrips tabaci)

Cc1cc(C2=NO[C@](c3cc(Cl)c(F)c(Cl)c3)(C(F)(F)F)C2)ccc1C(=O)N[C@H]1CON(S(=O)(=O)CC(F)F)C1 [Compound A225, 4-[(5R)-5-(3,5-dichloro-4-fluorophenyl)-5-(trifluoromethyl)-4H-1,2-oxazol-3-yl]-N-[(4R)-2-(2,2-difluoroethylsulfonyl)-1,2-oxazolidin-4-yl]-2-methylbenzamide]
≥ 80%: percent effect (mortality or growth inhibition) at 200 ppm (Diabrotica balteata) | percent effect (mortality or growth inhibition) at 200 ppm (Euschistus heros) | percent effect (mortality or growth inhibition) at 200 ppm (Plutella xylostella) | mortality at 200 ppm (Spodoptera littoralis) | mortality at 200 ppm (Tetranychus urticae) | mortality at 200 ppm (Thrips tabaci)

Cc1cc(C2=NO[C@@](c3cc(Cl)c(F)c(Cl)c3)(C(F)(F)F)C2)ccc1C(=O)NC1CON(S(=O)(=O)c2ccc(Cl)cc2)C1 (stereo partly drawn) [Compound A2, N-[2-(4-chlorophenyl)sulfonylisoxazolidin-4-yl]-4-[(5S)-5-(3,5-dichloro-4-fluoro-phenyl)-5-(trifluoromethyl)-4H-isoxazol-3-yl]-2-methyl-benzamide]
≥ 80%: percent effect (mortality or growth inhibition) at 200 ppm (Diabrotica balteata) | percent effect (mortality or growth inhibition) at 200 ppm (Euschistus heros) | percent effect (mortality or growth inhibition) at 200 ppm (Plutella xylostella) | mortality at 200 ppm (Spodoptera littoralis) | mortality at 200 ppm (Tetranychus urticae) | mortality at 200 ppm (Thrips tabaci)

C=CCN(C(=O)OC(C)(C)C)S(=O)(=O)N1CC(NC(=O)c2ccc(C3=NO[C@@](c4cc(Cl)c(F)c(Cl)c4)(C(F)(F)F)C3)cc2C)CO1 (stereo partly drawn) [Compound A94, tert-butyl N-allyl-N-[4-[[4-[(5S)-5-(3,5-dichloro-4-fluoro-phenyl)-5-(trifluoromethyl)-4H-isoxazol-3-yl]-2-methyl-benzoyl]amino]isoxazolidin-2-yl]sulfonyl-carbamate]
≥ 80%: percent effect (mortality or growth inhibition) at 200 ppm (Diabrotica balteata) | percent effect (mortality or growth inhibition) at 200 ppm (Euschistus heros) | percent effect (mortality or growth inhibition) at 200 ppm (Plutella xylostella) | mortality at 200 ppm (Spodoptera littoralis) | mortality at 200 ppm (Tetranychus urticae) | mortality at 200 ppm (Thrips tabaci)

CS(=O)(=O)N1CC(NC(=O)c2ccc(C3=NOC(c4cc(Cl)cc(Cl)c4)(C(F)(F)F)C3)cc2Cl)CO1 (stereo not drawn) [Compound A49]
≥ 80%: percent effect (mortality or growth inhibition) at 200 ppm (Diabrotica balteata) | percent effect (mortality or growth inhibition) at 200 ppm (Euschistus heros) | percent effect (mortality or growth inhibition) at 200 ppm (Plutella xylostella) | mortality at 200 ppm (Spodoptera littoralis) | mortality at 200 ppm (Tetranychus urticae) | mortality at 200 ppm (Thrips tabaci)

Cc1cc(C2=NOC(c3cccc(C(F)(F)F)c3)(C(F)(F)F)C2)ccc1C(=O)NC1CON(S(C)(=O)=O)C1 (stereo not drawn) [Compound A60]
≥ 80%: percent effect (mortality or growth inhibition) at 200 ppm (Diabrotica balteata) | percent effect (mortality or growth inhibition) at 200 ppm (Euschistus heros) | percent effect (mortality or growth inhibition) at 200 ppm (Plutella xylostella) | mortality at 200 ppm (Spodoptera littoralis) | mortality at 200 ppm (Tetranychus urticae) | mortality at 200 ppm (Thrips tabaci)

Cc1cc(C2=NO[C@@](c3cc(Cl)cc(Cl)c3)(C(F)(F)F)C2)ccc1C(=O)N[C@@H]1CON(S(=O)(=O)NCC(F)(F)F)C1 [Compound A194]
≥ 80%: percent effect (mortality or growth inhibition) at 200 ppm (Diabrotica balteata) | percent effect (mortality or growth inhibition) at 200 ppm (Euschistus heros) | percent effect (mortality or growth inhibition) at 200 ppm (Plutella xylostella) | mortality at 200 ppm (Spodoptera littoralis) | mortality at 200 ppm (Tetranychus urticae) | mortality at 200 ppm (Thrips tabaci)

Cc1cc(C2=NO[C@](c3cc(Cl)c(F)c(Cl)c3)(C(F)(F)F)C2)ccc1C(=O)N[C@H]1CON(S(=O)(=O)CCC(F)(F)F)C1 [Compound A199, 4-[(5R)-5-(3,5-dichloro-4-fluorophenyl)-5-(trifluoromethyl)-4H-1,2-oxazol-3-yl]-2-methyl-N-[(4R)-2-(3,3,3-trifluoropropylsulfonyl)-1,2-oxazolidin-4-yl]benzamide]
≥ 80%: percent effect (mortality or growth inhibition) at 200 ppm (Diabrotica balteata) | percent effect (mortality or growth inhibition) at 200 ppm (Euschistus heros) | percent effect (mortality or growth inhibition) at 200 ppm (Plutella xylostella) | mortality at 200 ppm (Spodoptera littoralis) | mortality at 200 ppm (Tetranychus urticae) | mortality at 200 ppm (Thrips tabaci)

Cc1cc(C2=NO[C@@](c3cc(Cl)cc(Cl)c3)(C(F)(F)F)C2)ccc1C(=O)N[C@@H]1CON(S(=O)(=O)CC(=O)N(C)C)C1 [Compound A202, 4-[(5S)-5-(3,5-dichlorophenyl)-5-(trifluoromethyl)-4H-1,2-oxazol-3-yl]-N-[(4S)-2-[2-(dimethylamino)-2-oxoethyl]sulfonyl-1,2-oxazolidin-4-yl]-2-methylbenzamide]
≥ 80%: percent effect (mortality or growth inhibition) at 200 ppm (Diabrotica balteata) | percent effect (mortality or growth inhibition) at 200 ppm (Euschistus heros) | percent effect (mortality or growth inhibition) at 200 ppm (Plutella xylostella) | mortality at 200 ppm (Spodoptera littoralis) | mortality at 200 ppm (Tetranychus urticae) | mortality at 200 ppm (Thrips tabaci)
